Data: patent publication US12319675B2 (Artax Biopharma Inc., priority 2018, dated 2025)

How the values were obtained:
[1] = Microsomal stability assay, human; format: in vitro ADME; details: human microsomes, read-out: Microsomal Stability (T1/2 min) Human
Protocol: (§1) Microsomal stability assays were performed using mouse, rat, and human […] according to methods well-known in the art. Microsomal stability results are shown in Table 2 for selected compounds of the invention. The compound numbers correspond to the compound numbers in Table 1. […] “N/A” indicates not assayed.

[2] = Microsomal stability assay, rat; format: in vitro ADME; details: rat microsomes, read-out: Microsomal Stability (T1/2 min) Rat
Protocol: as §1

[3] = Microsomal stability assay, mouse; format: in vitro ADME; details: mouse microsomes, read-out: Microsomal Stability (T1/2 min) Mouse
Protocol: as §1

[4] = molecular target: Nck SH3 domain interaction with the proline rich sequence of TCR subunit CD3ε (Homo sapiens, UniProt P16333); assay: Competitive binding, biosensor with Interferometric Optical Detection Method (IODM); details: ratio of 1:1 between Nck SH3 domain and inhibitors; biotinylated CD3ε peptide on sensing surface
Protocol: Inhibition of Nck SH3 domain interaction with the proline rich sequence of TCR subunit CD3ε was measured by optical read-out of a biosensor based on the Interferometric Optical Detection Method (IODM), using established methods (WO 2010/026269; WO 2014/020159; Laguna, M. et al., Sensors, 2015, 15(8):19819-29; and Holgado, M. et al., Sensors, 2014, 14(2): 3675-89).
Briefly, a Biophotonic Cell (BICELL) based on Fabry-Perot interferometers was used as the photonic transducer. The BICELL was fabricated using SU8 in cyclopentanone according to known methods (e.g., Laguna, M. F. et al., Sensors, 2014, 14(4): 6695-6700). Cured film was then treated with 95% sulfuric acid for 10 seconds. Streptavidin was then immobilized on the sensing surface in phosphate buffered saline (PBS; pH 7.4) over 20 min at 37° C. followed by blocking of the surface with 5% skin milk in PBS (pH 7.4). Biotinylated CD3ε peptide (SEQ ID NO: 001) in PBS (pH 7.4) was incubated with the streptavidin coated film to biofunctionalize the sensing surface (20 min at 37° C.).
Competitive binding assays were performed to determine the affinity reaction of inhibitors. The screening was carried out using a ratio of 1:1 between Nck SH3 domain and inhibitors. The optical readout of the biosensor was accomplished by a Fourier transform visible-infrared (FT-VIS-IR) spectrometer. Competitive binding results are shown in Table 3 for selected compounds of the invention. The compound numbers correspond to the compound numbers in Table 1. Compounds having a designation of “A” provide an Increased Relative Optical Power (ΔIROP) of less than or equal to thirty percent (≤30%); compounds having a designation of “B” provide a ΔIROP of between thirty and fifty percent (>30% to ≤50%); compounds having a designation of “C” provide an ΔIROP of between fifty and seventy percent (>50% to ≤70%); and compounds having a designation of “D” provide a ΔIROP of greater than seventy percent (>70%).

What does the source list for `CN(C)CCNC(=O)C1=C(c2ccc(F)cc2)c2cc(OC(F)(F)F)ccc2OC1` [Compound I-10, N-(2-(dimethylamino)ethyl)-4-(4-fluorophenyl)-6-(trifluoromethoxy)-2H-chromene-3-carboxamide]?
half-life [1]: > 30 min; half-life [2]: > 30 min; half-life [3]: > 30 min; ΔIROP (Increased Relative Optical Power) [4]: A (an Increased Relative Optical Power (ΔIROP) of less than or equal to thirty percent (≤30%))

With `COc1ccc2c(c1)C(c1ccc(C(F)(F)F)cc1)=C(C(=O)N1CCN(C)CC1)CO2` [Compound I-29] as the compound, how does the half-life [1] read?
Its half-life is less than 10 min.

What about the half-life [2] of the same compound?
The half-life was 10 to 30 min.

And the half-life [3]?
Its half-life is less than 10 min.

And the “ΔIROP (Increased Relative Optical Power)” value [4]?
Its value is “B (a ΔIROP of between thirty and fifty percent (>30% to ≤50%))”.

For `CCNC(=O)C1=C(c2ccc(F)cc2)c2cc(OC(F)(F)F)ccc2OC1` [Compound I-8], which half-life [1] is on record?
The half-life was greater than 30 min.

And the half-life [2]?
The half-life was less than 10 min.

What about the half-life [3] of the same compound?
The half-life was less than 10 min.

And the “ΔIROP (Increased Relative Optical Power)” value [4]?
Its value is “B (a ΔIROP of between thirty and fifty percent (>30% to ≤50%))”.

Which half-life [1] does the source give for `CN1CCN(C(=O)C2=C(c3ccc(F)cc3)c3cc(C(F)(F)F)ccc3OC2)CC1` [Compound I-26, (4-(4-fluorophenyl)-6-(trifluoromethyl)-2H-chromen-3-yl)(4-methylpiperazin-1-yl)methanone] here?
The half-life was 10 to 30 min.

What about the half-life [2] of the same compound?
The half-life was less than 10 min.

What about the half-life [3] of the same compound?
The half-life was less than 10 min.

And the “ΔIROP (Increased Relative Optical Power)” value [4]?
The value was “C (an ΔIROP of between fifty and seventy percent (>50% to ≤70%))”.

What does the source list for `CCNCC1=C(c2ccc(F)cc2)c2cc(OC(F)F)ccc2OC1` [Compound I-6]?
half-life [1]: > 30 min; half-life [2]: < 10 min; half-life [3]: > 30 min; ΔIROP (Increased Relative Optical Power) [4]: C (an ΔIROP of between fifty and seventy percent (>50% to ≤70%))

For `CN1CCN(C(=O)C2=C(c3ccc(F)cc3)c3cc(Cl)ccc3OC2)CC1` [Compound I-25], which half-life [1] is on record?
Its half-life is 10 to 30 min.

And the half-life [2]?
The half-life was less than 10 min.

What about the half-life [3] of the same compound?
The half-life was less than 10 min.

What about the “ΔIROP (Increased Relative Optical Power)” value [4] of the same compound?
Its value is “B (a ΔIROP of between thirty and fifty percent (>30% to ≤50%))”.

Which half-life [1] does the source give for `CCNC(=O)C1=C(c2ccc(F)cc2)c2cc(OC(F)F)ccc2OC1` [Compound I-2] here?
The half-life was 10 to 30 min.

What about the half-life [2] of the same compound?
The half-life was less than 10 min.

What about the half-life [3] of the same compound?
Its half-life is less than 10 min.

What about the “ΔIROP (Increased Relative Optical Power)” value [4] of the same compound?
The value was “C (an ΔIROP of between fifty and seventy percent (>50% to ≤70%))”.

Which results are given for `CN(C)CCNC(=O)C1=C(c2ccc(F)cc2)c2cc(OC(F)F)ccc2OC1` [Compound I-4]?
half-life [1]: > 30 min; half-life [2]: 10 to 30 min; half-life [3]: 10 to 30 min; ΔIROP (Increased Relative Optical Power) [4]: B (a ΔIROP of between thirty and fifty percent (>30% to ≤50%))

For `COc1ccc2c(c1)C(c1ccc(Cl)cc1)=C(C(=O)N1CCN(C)CC1)CO2` [Compound I-28], which half-life [1] is on record?
Its half-life is less than 10 min.

What about the half-life [2] of the same compound?
The half-life was less than 10 min.

What about the half-life [3] of the same compound?
Its half-life is less than 10 min.

And the “ΔIROP (Increased Relative Optical Power)” value [4]?
Its value is “D (a ΔIROP of greater than seventy percent (>70%))”.

With `N#CCCOc1ccc2c(c1)C(c1ccc(F)cc1)=C(CN1CCCC1)CO2` [Compound I-32, 3-((4-(4-fluorophenyl)-3-(pyrrolidin-1-ylmethyl)-2H-chromen-6-yl)oxy)propanenitrile] as the compound, how does the half-life [1] read?
The half-life was 10 to 30 min.

And the half-life [2]?
The half-life was less than 10 min.

What about the half-life [3] of the same compound?
The half-life was 10 to 30 min.

What about the “ΔIROP (Increased Relative Optical Power)” value [4] of the same compound?
The value was “B (a ΔIROP of between thirty and fifty percent (>30% to ≤50%))”.

What does the source list for `Fc1ccc(C2=C(CN3CCOCC3)COc3ccc(OC(F)F)cc32)cc1` [Compound I-5]?
half-life [1]: 10 to 30 min; half-life [2]: 10 to 30 min; half-life [3]: 10 to 30 min; ΔIROP (Increased Relative Optical Power) [4]: B (a ΔIROP of between thirty and fifty percent (>30% to ≤50%))

With `CN1CCN(C(=O)C2=C(c3ccc(F)cc3)c3cc(OC(F)(F)F)ccc3OC2)CC1` [Compound I-9] as the compound, how does the half-life [1] read?
The half-life was 10 to 30 min.

What about the half-life [2] of the same compound?
Its half-life is less than 10 min.

And the half-life [3]?
Its half-life is 10 to 30 min.

What about the “ΔIROP (Increased Relative Optical Power)” value [4] of the same compound?
The value was “D (a ΔIROP of greater than seventy percent (>70%))”.

What does the source list for `COc1ccc2c(c1)C(c1cccc(F)c1)=C(C(=O)N1CCN(C)CC1)CO2` [Compound I-31]?
half-life [1]: 10 to 30 min; half-life [2]: < 10 min; half-life [3]: < 10 min; ΔIROP (Increased Relative Optical Power) [4]: C (an ΔIROP of between fifty and seventy percent (>50% to ≤70%))
